Molecular target: T1, purified human HDAC6 (Homo sapiens, UniProt Q9UBN7)
T1 construct: purchased BPS Bioscience 5006
T1 sequence (Q9UBN7 1-1215): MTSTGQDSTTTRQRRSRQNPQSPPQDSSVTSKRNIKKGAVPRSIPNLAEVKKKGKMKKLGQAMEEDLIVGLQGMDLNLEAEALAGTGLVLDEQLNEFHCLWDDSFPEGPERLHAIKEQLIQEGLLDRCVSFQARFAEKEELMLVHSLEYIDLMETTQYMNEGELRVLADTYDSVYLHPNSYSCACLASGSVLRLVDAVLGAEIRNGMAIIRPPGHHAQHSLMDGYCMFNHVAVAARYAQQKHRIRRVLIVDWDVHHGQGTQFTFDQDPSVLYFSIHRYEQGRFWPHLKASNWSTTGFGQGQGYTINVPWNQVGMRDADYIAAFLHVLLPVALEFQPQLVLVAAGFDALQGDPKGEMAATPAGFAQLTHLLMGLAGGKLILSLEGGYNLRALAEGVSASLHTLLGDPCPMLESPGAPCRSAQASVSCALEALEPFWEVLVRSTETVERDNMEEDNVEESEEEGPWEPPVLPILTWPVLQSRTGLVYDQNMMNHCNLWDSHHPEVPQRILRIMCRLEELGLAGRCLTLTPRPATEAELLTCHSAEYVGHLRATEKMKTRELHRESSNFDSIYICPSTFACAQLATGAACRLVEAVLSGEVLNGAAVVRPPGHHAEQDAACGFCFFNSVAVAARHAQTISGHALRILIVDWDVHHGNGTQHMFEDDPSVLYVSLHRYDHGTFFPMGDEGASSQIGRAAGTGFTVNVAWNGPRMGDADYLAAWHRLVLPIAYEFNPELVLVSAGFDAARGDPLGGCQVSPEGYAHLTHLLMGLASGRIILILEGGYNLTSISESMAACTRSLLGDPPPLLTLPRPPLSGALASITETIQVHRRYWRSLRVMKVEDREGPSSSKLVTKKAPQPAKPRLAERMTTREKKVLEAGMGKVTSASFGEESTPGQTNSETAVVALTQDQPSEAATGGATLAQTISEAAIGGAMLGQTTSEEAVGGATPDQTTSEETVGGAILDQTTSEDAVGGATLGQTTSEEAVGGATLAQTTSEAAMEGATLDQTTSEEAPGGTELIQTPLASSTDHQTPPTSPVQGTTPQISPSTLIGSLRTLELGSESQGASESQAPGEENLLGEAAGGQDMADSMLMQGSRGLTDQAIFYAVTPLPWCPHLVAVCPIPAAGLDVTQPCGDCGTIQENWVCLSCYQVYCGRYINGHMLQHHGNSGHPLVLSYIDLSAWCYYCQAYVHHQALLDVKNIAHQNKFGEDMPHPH
Assay: HDAC6 Enzyme Assay
Type: biochemical
Settings: enzyme inhibition, substrate Ac-Arg-Gly-Lys(Ac)-AMC, 1 hour at 30° C.
Procedure, shortened: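 Purified human HDAC6 incubated 1 h at 30 °C with Ac-Arg-Gly-Lys(Ac)-AMC peptide and compound; reaction stopped with trichostatin A, then trypsin releases AMC, read by fluorescence (Ex 340/Em 460 nm). IC50 from concentration-response curves relative to DMSO controls.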

| Structure (SMILES) | IC50 [nM] |
| --- | --- |
| CC1(C)CN(C(=O)c2sc3ccccc3c2Cl)Cc2cc(C(=O)NO)sc21 [Compound 192, 5-[(3-chloro-1-benzothien-2-yl)carbonyl]-N-hydroxy-7,7-dimethyl-4,5,6,7-tetrahydrothieno[3,2-c]pyridine-2-carboxamide] | > 1000 |
| Cc1c(C(=O)NO)sc2c1CN(C(=O)c1ccc(Cl)cc1)CC2 [Compound 193, 5-(4-chlorobenzoyl)-N-hydroxy-3-methyl-4,5,6,7-tetrahydrothieno[3,2-c]pyridine-2-carboxamide] | < 50 |
| Cc1c(C(=O)NO)sc2c1CN(C(=O)c1cccn1C)CC2 [Compound 194, N-hydroxy-3-methyl-5-[(1-methyl-1H-pyrrol-2-yl)carbonyl]-4,5,6,7-tetrahydrothieno[3,2-c]pyridine-2-carboxamide] | < 50 |
| CC1(C)CN(C(=O)c2cc3ccccc3s2)Cc2cc(C(=O)NO)sc21 [Compound 195, 5-(1-benzothien-2-ylcarbonyl)-N-hydroxy-7,7-dimethyl-4,5,6,7-tetrahydrothieno[3,2-c]pyridine-2-carboxamide] | > 1000 |
| CC1(C)CN(C(=O)Nc2ccc(C#N)cc2)Cc2cc(C(=O)NO)sc21 [Compound 196, N^5-(4-cyanophenyl)-N2-hydroxy-7,7-dimethyl-6,7-dihydrothieno[3,2-c]pyridine-2,5(4H)-dicarboxamide] | > 1000 |
| CC1(C)CN(C(=O)c2ccc3c(c2)OCCCO3)Cc2cc(C(=O)NO)sc21 [Compound 198, 5-(3,4-dihydro-2H-1,5-benzodioxepin-7-ylcarbonyl)-N-hydroxy-7,7-dimethyl-4,5,6,7-tetrahydrothieno[3,2-c]pyridine-2-carboxamide] | > 1000 |
| Cc1nc(-c2ccccn2)sc1C(=O)N1CCc2sc(C(=O)NO)c(C)c2C1 [Compound 199, N-hydroxy-3-methyl-5-[(4-methyl-2-pyridin-2-yl-1,3-thiazol-5-yl)carbonyl]-4,5,6,7-tetrahydrothieno[3,2-c]pyridine-2-carboxamide] | 50 to 100 |
| Cc1c(C(=O)NO)sc2c1CN(C(=O)c1cc3ccccc3s1)CC2 [Compound 205, 5-(1-benzothien-2-ylcarbonyl)-N-hydroxy-3-methyl-4,5,6,7-tetrahydrothieno[3,2-c]pyridine-2-carboxamide] | < 50 |
| COc1ccc(C(=O)N2CCc3sc(C(=O)NO)c(C)c3C2)cc1 [Compound 209, N-hydroxy-5-(4-methoxybenzoyl)-3-methyl-4,5,6,7-tetrahydrothieno[3,2-c]pyridine-2-carboxamide] | < 50 |
| Cn1cccc1C(=O)N1Cc2cc(C(=O)NO)sc2C(C)(C)C1 [Compound 210, N-hydroxy-7,7-dimethyl-5-[(1-methyl-1H-pyrrol-2-yl)carbonyl]-4,5,6,7-tetrahydrothieno[3,2-c]pyridine-2-carboxamide] | > 1000 |
| CC(C)(C)OC(=O)N1CCc2sc(C(=O)NO)cc2C1 [Compound 212, tert-butyl 2-[(hydroxyamino)carbonyl]-6,7-dihydrothieno[3,2-c]pyridine-5(4H)-carboxylate] | < 50 |
| COc1ccc(C(=O)N2Cc3cc(C(=O)NO)sc3C(C)(C)C2)cc1 [Compound 214, N-hydroxy-5-(4-methoxybenzoyl)-7,7-dimethyl-4,5,6,7-tetrahydrothieno[3,2-c]pyridine-2-carboxamide] | > 1000 |
| Cc1c(C(=O)NO)sc2c1CN(C(=O)c1cc3ccccc3o1)CC2 [Compound 216, 5-(1-benzofuran-2-ylcarbonyl)-N-hydroxy-3-methyl-4,5,6,7-tetrahydrothieno[3,2-c]pyridine-2-carboxamide] | 50 to 100 |
| CC1(C)CN(C(=O)c2ccc(Cl)cc2)Cc2cc(C(=O)NO)sc21 [Compound 218, 5-(4-chlorobenzoyl)-N-hydroxy-7,7-dimethyl-4,5,6,7-tetrahydrothieno[3,2-c]pyridine-2-carboxamide] | > 1000 |
| CC1(C)CN(C(=O)c2ccccn2)Cc2cc(C(=O)NO)sc21 [Compound 220, N-hydroxy-7,7-dimethyl-5-(pyridin-2-ylcarbonyl)-4,5,6,7-tetrahydrothieno[3,2-c]pyridine-2-carboxamide] | > 1000 |
| Cc1c(C(=O)NO)sc2c1CN(C(=O)c1sc3ccccc3c1Cl)CC2 [Compound 221, 5-[(3-chloro-1-benzothien-2-yl)carbonyl]-N-hydroxy-3-methyl-4,5,6,7-tetrahydrothieno[3,2-c]pyridine-2-carboxamide] | 50 to 100 |
| Cc1nc(C(=O)N2Cc3cc(C(=O)NO)sc3C(C)(C)C2)cs1 [Compound 222, N-hydroxy-7,7-dimethyl-5-[(2-methyl-1,3-thiazol-4-yl)carbonyl]-4,5,6,7-tetrahydrothieno[3,2-c]pyridine-2-carboxamide] | > 1000 |
| CC1(C(=O)N2Cc3cc(C(=O)NO)sc3C(C)(C)C2)CCCCC1 [Compound 224, N-hydroxy-7,7-dimethyl-5-[(1-methylcyclohexyl)carbonyl]-4,5,6,7-tetrahydrothieno[3,2-c]pyridine-2-carboxamide] | > 1000 |
| Cc1c(C(=O)NO)sc2c1CN(C(=O)c1ccc(C(C)(C)C)cc1)CC2 [Compound 225, 5-(4-tert-butylbenzoyl)-N-hydroxy-3-methyl-4,5,6,7-tetrahydrothieno[3,2-c]pyridine-2-carboxamide] | 50 to 100 |
| O=C(NO)c1cc2c(s1)CN(C(=O)C13CC4CC(CC(C4)C1)C3)C2 [Compound 230, 5-(1-adamantylcarbonyl)-N-hydroxy-5,6-dihydro-4H-thieno[2,3-c]pyrrole-2-carboxamide] | 50 to 100 |
| O=C(NO)c1cc2c(s1)CN(C(=O)c1cc3ccccc3s1)C2 [Compound 231, 5-(1-benzothien-2-ylcarbonyl)-N-hydroxy-5,6-dihydro-4H-thieno[2,3-c]pyrrole-2-carboxamide] | < 50 |
| Cc1c(C(=O)NO)sc2c1CN(C(=O)c1ccc(-c3ccccc3)cc1)CC2 [Compound 233, 5-(biphenyl-4-ylcarbonyl)-N-hydroxy-3-methyl-4,5,6,7-tetrahydrothieno[3,2-c]pyridine-2-carboxamide] | < 50 |
| CC1(C)CN(C(=O)c2ccccc2Cl)Cc2cc(C(=O)NO)sc21 [Compound 234, 5-(2-chlorobenzoyl)-N-hydroxy-7,7-dimethyl-4,5,6,7-tetrahydrothieno[3,2-c]pyridine-2-carboxamide] | > 1000 |

Source: US8624040B2, “Substituted hydroxamic acids and uses thereof” (Millennium Pharmaceuticals, Inc., priority 2009, dated 2014)
